Experimental data taken from patent publication US10981882B1, “Compound for inhibiting IDO, a manufacturing method and a use thereof” (Shanghai JOYU Pharmatech Ltd., priority 2017, dated 2021).

Legend:
[1] = molecular target: IDO protease in HEK293 cell (Homo sapiens (Human), UniProt P14902); experiment: Inhibitory activity of IDO protease in HEK293 cell transfected with human IDO gene; assay type: cell-based; settings: for inhibiting effect on IDO protease: result in words, tested by the above assay; for IC50: HEK293 cells transfected with pcDNA3.1(+)-hIDO, compounds incubated for 5 hr
Chain of IDO protease in HEK293 cell (P14902 whole entry): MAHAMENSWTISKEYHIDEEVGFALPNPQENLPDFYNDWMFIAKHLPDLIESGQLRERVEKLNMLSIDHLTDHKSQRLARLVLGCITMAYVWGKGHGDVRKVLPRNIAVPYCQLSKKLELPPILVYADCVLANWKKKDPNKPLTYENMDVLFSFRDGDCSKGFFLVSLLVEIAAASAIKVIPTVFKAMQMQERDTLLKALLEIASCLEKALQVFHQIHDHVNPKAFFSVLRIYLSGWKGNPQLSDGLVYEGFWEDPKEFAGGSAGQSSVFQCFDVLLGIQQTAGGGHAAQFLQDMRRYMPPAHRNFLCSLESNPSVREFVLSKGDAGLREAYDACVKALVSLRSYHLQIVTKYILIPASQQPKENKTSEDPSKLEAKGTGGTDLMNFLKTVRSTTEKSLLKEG
Method: 2. Determination of the Inhibitory Activity of IDO Protease in HEK293 Cell
HEK293 cells were seeded in a 96-well microplate at a density of 2.5×10^4 cells/well and were maintained in DMEM (containing 10% fetal bovine serum, 50 U/mL penicillin and […] streptomycin) at 37° C. 24 hours later, HEK-293 cells were transfected with pcDNA3.1 (+)-hIDO vector carrying human IDO gene using Lipofectamine 2000. After 24 hr, the tested compounds were added to the cells and incubated for 5 hr. 140 μL of supernatant was transferred to a well in a new 96-well microplate. 10 μL of 30% (w/v) trichloroacetic acid was added to each sample-containing well and reaction was incubated at 65° C. for 15 min. The reaction mixture was centrifuged at 13000×g for 10 min. The supernatant was mixed with p-(dimethylamino)benzaldehydein acetic acid in the same volume. The yellow pigment derived from kynurenine was measured for absorbance (D) value at 480 nm using a microplate reader.
The inhibitory activity of compounds prepared in Example 1-19 against the IDO protease in HEK293 cell was determined with the above test.

human IDO1 protease = human IDO1 protease (Homo sapiens (Human), UniProt P14902); experiment: Inhibitory activity against human IDO1 protease (recombinant enzyme, kynurenine absorbance at 480 nm); assay type: biochemical; settings: recombinant human IDO1, L-Tryptophan substrate, 30 min at 37° C.
Chain of human IDO1 protease (P14902 whole entry): as above
Method: The inhibitory activity of extracorporal human IDO1 protease was tested through the following method. The inhibition effect of compounds of the present invention against the human IDO1 protease was determined through the method.
(1) Preparation of Human Recombinant IDO1 Protease
BL21 E. Coli were transformed with a correct sequences PET28a-hIDO1 vector. A single colony was inoculated in Luria-Bertani (LB) medium at 37° C. Bacterial cells were then collected through centrifugation. The cell pellets were sonicated, then centrifuged at 4° C. The supernatant was then collected and purified by Ni chromatography to give pure rhIDO1 protease.
(2) The Test of the Compounds
IDO1 enzymatic assay was carried out in a reaction mixture (500 μL/well) containing 50 mmol/L potassium phosphate buffer, 400 μg/mL catalase, 40 mmol/L ascorbic acid, 20 μmol/mL methylene blue, […] L-Tryptophan and the test compound. After the mixture was incubated for 3˜5 min at 37° C., recombinant human IDO1 was added to. The mixture was incubated for another 30 min at 37° C. and the reaction was stopped by adding 200 μL of 30% (w/v) trichloroacetic acid. After heating in a water bath pot at 65° C. for 15 min and centrifugation at 13800×g for 10 min. 100 μL of supernatant was transferred into a well of a 96-well microplate and mixed with the same volume of 2% (w/v) p-(dimethylamino)benzaldehyde in acetic acid. […]. When the color of the mixture became yellow, the mixture was measured for absorbance (D) value at 480 nm using microplate reader.
The inhibitory activity of compounds of the present invention against the human IDO1 protease was determined with the above test.

inhibiting effect on IDO protease [1] | IC50 (human IDO1 protease) [nM] | IC50 [1] [nM] | Compound
showed the inhibiting effect | – | – | N=C(Nc1ccc(F)c(Br)c1)c1nonc1NCCC1CCCC(CNS(N)(=O)=O)C1 (centres unmarked) [Compound 14]
showed the inhibiting effect | – | – | N=C(Nc1ccc(F)c(Br)c1)c1nonc1NCC1CCCC(CCNS(N)(=O)=O)C1 (centres unmarked) [Compound 15]
showed the inhibiting effect | – | – | NS(=O)(=O)NCCC1CCCC(CCNc2nonc2C(=NO)Nc2ccc(F)c(Br)c2)C1 (centres unmarked) [Compound 16]
showed the inhibiting effect | – | – | N=C(Nc1ccc(F)c(Br)c1)c1nonc1NC1CCC(CCNS(N)(=O)=O)C1 (centres unmarked) [Compound 17]
showed the inhibiting effect | – | – | NS(=O)(=O)NC1CCC(CNc2nonc2C(=NO)Nc2ccc(F)c(Br)c2)C1 (centres unmarked) [Compound 19]
– | 16 | 8 | NS(=O)(=O)NC[C@H]1CC[C@H](Nc2nonc2C(=NO)Nc2ccc(F)c(Br)c2)CC1 [Example 1, trans-N-(3-bromo-4-fluorophenyl)-N′-hydroxy-4-((4-((sulfamoylamino)methyl)cyclohexyl)amino)-1,2,5-oxadiazole-3-carboximidamide]
– | 46 | 36 | NS(=O)(=O)NCC[C@H]1CC[C@H](Nc2nonc2C(=NO)Nc2ccc(F)c(Br)c2)CC1 [Example 2, trans-N-(3-bromo-4-fluorophenyl)-N′-hydroxy-4-((4-(2-(sulfamoylamino)ethyl)cyclohexyl)amino)-1,2,5-oxadiazole-3-carboximidamide]
– | 38 | 13 | NS(=O)(=O)N[C@H]1CC[C@H](CNc2nonc2C(=NO)Nc2ccc(F)c(Br)c2)CC1 [Example 3, Trans-N-(3-bromo-4-fluorophenyl)-N′-hydroxy-4-(((4-(sulfamoylamino)cyclohexyl)methyl)amino)-1,2,5-oxadiazole-3-carboximidamide]
– | 22 | 36 | NS(=O)(=O)NC1CCC(CCNc2nonc2C(=NO)Nc2ccc(F)c(Br)c2)CC1 (centres unmarked) [Example 4, N-(3-bromo-4-fluorophenyl)-N′-hydroxy-4-((2-(4-(sulfamoylamino)cyclohexyl)ethyl)amino)-1,2,5-oxadiazole-3-carboximidamide]
– | 45 | 14 | NS(=O)(=O)NCC1CCC(CNc2nonc2C(=NO)Nc2ccc(F)c(Br)c2)CC1 (centres unmarked) [Example 5, N-(3-bromo-4-fluorophenyl)-N′-hydroxy-4-(((4-((sulfamoylamino)methyl)cyclohexyl)methyl)amino)-1,2,5-oxadiazole-3-carboximidamide]
– | 48 | 39 | NS(=O)(=O)NCC1CCC(CCNc2nonc2C(=NO)Nc2ccc(F)c(Br)c2)CC1 (centres unmarked) [Example 6, N-(3-bromo-4-fluorophenyl)-N′-hydroxy-4-((2-(4-((sulfamoylamino)methyl)cyclohexyl)ethyl)amino)-1,2,5-oxadiazole-3-carboximidamide]
– | 74 | 21 | NS(=O)(=O)NCCC1CCC(CNc2nonc2C(=NO)Nc2ccc(F)c(Br)c2)CC1 (centres unmarked) [Example 7, N-(3-bromo-4-fluorophenyl)-N′-hydroxy-4-(((4-(2-(sulfamoylamino)ethyl)cyclohexyl)methyl)amino)-1,2,5-oxadiazole-3-carboximidamide]
– | 51 | 45 | NS(=O)(=O)NCCC1CCC(CCNc2nonc2C(=NO)Nc2ccc(F)c(Br)c2)CC1 (centres unmarked) [Example 8, N-(3-bromo-4-fluorophenyl)-N′-hydroxy-4-((2-(4-(2-(sulfamoylamino)ethyl)cyclohexyl)ethyl)amino)-1,2,5-oxadiazole-3-carboximidamide]
– | 64 | 27 | NS(=O)(=O)NCC1CCCC(Nc2nonc2C(=NO)Nc2ccc(F)c(Br)c2)C1 (centres unmarked) [Example 9, N-(3-bromo-4-fluorophenyl)-N′-hydroxy-4-((3-((sulfamoylamino)methyl)cyclohexyl)amino)-1,2,5-oxadiazole-3-carboximidamide]
– | 59 | 52 | NS(=O)(=O)NCCC1CCCC(Nc2nonc2C(=NO)Nc2ccc(F)c(Br)c2)C1 (centres unmarked) [Example 10, N-(3-bromo-4-fluorophenyl)-N′-hydroxy-4-((3-(2-(sulfamoylamino)ethyl)cyclohexyl)amino)-1,2,5-oxadiazole-3-carboximidamide]
– | 43 | 18 | NS(=O)(=O)NC1CCCC(CNc2nonc2C(=NO)Nc2ccc(F)c(Br)c2)C1 (centres unmarked) [Example 11, N-(3-bromo-4-fluorophenyl)-N′-hydroxy-4-(((3-(sulfamoylamino)cyclohexyl)methyl)amino)-1,2,5-oxadiazole-3-carboximidamide]
– | 60 | 23 | NS(=O)(=O)NC1CCCC(CCNc2nonc2C(=NO)Nc2ccc(F)c(Br)c2)C1 (centres unmarked) [Example 12, N-(3-bromo-4-fluorophenyl)-N′-hydroxy-4-((2-(3-(sulfamoylamino)cyclohexyl)ethyl)amino)-1,2,5-oxadiazole-3-carboximidamide]
– | 108 | 48 | NS(=O)(=O)NCC1CCC(Nc2nonc2C(=NO)Nc2ccc(F)c(Br)c2)C1 (centres unmarked) [Example 14, N-(3-bromo-4-fluorophenyl)-N′-hydroxy-4-((3-((sulfamoylamino)methyl)cyclopentyl)amino)-1,2,5-oxadiazole-3-carboximidamide]
– | 83 | 37 | NS(=O)(=O)NC1CCN(Nc2nonc2C(=NO)Nc2ccc(F)c(Br)c2)CC1 [Example 15, N-(3-bromo-4-fluorophenyl)-N′-hydroxy-4-((4-(sulfamoylamino)piperidin-1-yl)amino)-1,2,5-oxadiazole-3-carboximidamide]
– | 63 | 42 | NS(=O)(=O)NC1CCC(Nc2nonc2C(=NO)Nc2ccc(F)c(Br)c2)C1 (centres unmarked) [Example 16]
– | 15 | 10 | NS(=O)(=O)NC1CCC(Nc2nonc2/C(=N/O)Nc2ccc(F)c(Br)c2)CC1 (centres unmarked) [Example 17, N-(3-bromo-4-fluorophenyl)-N′-hydroxy-4-((4-(sulfamoylamino)cyclohexyl)amino)-1,2,5-oxadiazole-3-carboximidamide]
– | 6 | 3 | NS(=O)(=O)N[C@H]1CC[C@H](Nc2nonc2C(=NO)Nc2ccc(F)c(Br)c2)CC1 [Example 18, trans-N-(3-bromo-4-fluorophenyl)-N′-hydroxy-4-(((1r,4r)-4-(sulfamoylamino)yclohexyl)amino)-1,2,5-oxadiazole-3-carboximidamide]
– | 12 | 5 | NS(=O)(=O)N[C@H]1CC[C@@H](Nc2nonc2C(=NO)Nc2ccc(F)c(Br)c2)CC1 [Example 19, cis-N-(3-bromo-4-fluorophenyl)-N′-hydroxy-4-(((1s,4s)-4-(sulfamoylamino)cyclohexyl)amino)-1,2,5-oxadiazole-3-carboximidamide]
